Source: patent publication US10736968B2, “Cellular signalling inhibitors, their formulations and methods thereof” (INVICTUS ONCOLOGY PVT. LTD., priority 2016, dated 2020)

Tests used:
B16/F10 melanoma = B16/F10 melanoma tumor growth; format: in vivo, mice; details: 45 mg/kg on day 0, day 4 and day 8
Source text: FIG. 6. Effect of BLN101 on tumor growth inhibition. […] To validate the therapeutic efficacy of AK750, we randomly sorted mice bearing B16/F10 melanoma into three groups and treated each group with one of the following: blank vehicle (control); AK750; and BLZ945. The mice injected with vehicle formed large tumors by Day 10 (the day of first injection being Day 0), and consequently were killed. The animals in the other groups were also killed at the same time point to evaluate the effect of the treatments on tumor pathology. […] Changes in body weight were within the acceptable limits.
(§1) Activity Studies of Compound of Formula I • Efficacy of BLN101 vs BLZ945 on the ability to inhibit CSF1R in vitro is studied. RAW264.7 cells are treated with BLZ945 (67 nM) or BLN101 (67 nM) for different time points, at the end of which the cells were exposed to CSF1 (10 ng/ml) for 20 min. The cells were then lysed and analyzed for phosphorylated CSF1R levels. […] Efficacy of BLN101 (in formulation AK750) vs BLZ945 on increase in iNOS expression in vitro is studied. It is observed that exposure to Tumor Conditioned Media over 24 h decreases INOS levels. […] At different time-points, the cells are harvested and analyzed the population for M1 (MHCII+, CD86+, CD80+) or M2 (CD206+) markers using fluorescence activated cell sorting (FIG. 5d). […]

AKT-mTOR-p70S6K pathway = assay: Downstream signaling in macrophages after drug washout and MCSF exposure (Western blot); format: cell-based; details: 4 hours drug, washout 7 h or 48 h, MCSF 2 h
monocytes = assay: M1/M2 marker expression in IL-4 treated monocytes (FACS); format: cell-based; details: IL4 24 hours then inhibitor 24 h, CD206, MHC-II, CD86, CD80
Method: FIG. 4. Effect of BLZ-945 and BLN101 (formulated as AK750) in repolarization of the M2-macrophage phenotype formed upon stimulation with IL-4 to the M1-macrophage phenotype. Monocytes were treated with IL-4 for 24 hours, followed by which they were treated with BLZ-945 or BLN101 (formulated as AK750) in basal DMEM media, and cells were collected at different time points. M1 and M2 markers expression on the macrophages and their isotype control was evaluated separately by FACS. Graph represents the representative M1/M2 ratio by taking into account the various individual M1 and M2 markers that were analyzed using FACS. Data are representative of 3 separate experiments.
as §1, with “studied.” for “studied. It is observed that exposure to Tumor Conditioned Media over 24 h decreases INOS levels.”

Row | SMILES | tumor growth (B16/F10 melanoma) | AKT-mTOR-p70S6K downstream signaling (AKT-mTOR-p70S6K pathway) | M1 and M2 macrophage markers (monocytes)
1 | CNC(=O)c1cc(Oc2ccc3nc(N[C@@H]4CCCC[C@H]4O)sc3c2)ccn1 [BLZ-945] | decreased tumor growth compared with vehicle-treated animals | not by BLZ945 and PLX3397 | 
2 | CNC(=O)c1cc(Oc2ccc3nc(NC4CCCC[C@H]4OC(=O)CCC(=O)O[C@H]4CC[C@@]5(C)C(=CC[C@H]6[C@@H]7CC[C@H](C(C)CCCC(C)C)[C@@]7(C)CC[C@@H]65)C4)sc3c2)ccn1 (stereo in doubt) [BLN101] |  |  | significantly increases the markers associated with M1 macrophages while reducing the M2 macrophage markers
